Laboratory results published in patent US4256761A, “Antihypertensive amides” (USV Pharmaceutical Corporation, priority 1979, dated 1981).

Legend:
[1] = test system: angiotensin I-induced hypertensive rats; test: oral antihypertensive activity in angiotensin I-induced hypertensive rats; assay type: in vivo; details: Rattus norvegicus, dose for 50% reduction in angiotensin I-induced hypertension, read-out: I50 (ID50, antihypertensive activity)
[2] = biological target: T1, angiotensin converting enzyme (Oryctolagus cuniculus, UniProt P12822); test: angiotensin converting enzyme inhibition (ACEI activity), method of Science 196, 441-4 (1977); assay type: biochemical; details: amount required for 50% inhibitive effect, read-out: I50 (ACEI activity)
T1 sequence (P12822 34-1310): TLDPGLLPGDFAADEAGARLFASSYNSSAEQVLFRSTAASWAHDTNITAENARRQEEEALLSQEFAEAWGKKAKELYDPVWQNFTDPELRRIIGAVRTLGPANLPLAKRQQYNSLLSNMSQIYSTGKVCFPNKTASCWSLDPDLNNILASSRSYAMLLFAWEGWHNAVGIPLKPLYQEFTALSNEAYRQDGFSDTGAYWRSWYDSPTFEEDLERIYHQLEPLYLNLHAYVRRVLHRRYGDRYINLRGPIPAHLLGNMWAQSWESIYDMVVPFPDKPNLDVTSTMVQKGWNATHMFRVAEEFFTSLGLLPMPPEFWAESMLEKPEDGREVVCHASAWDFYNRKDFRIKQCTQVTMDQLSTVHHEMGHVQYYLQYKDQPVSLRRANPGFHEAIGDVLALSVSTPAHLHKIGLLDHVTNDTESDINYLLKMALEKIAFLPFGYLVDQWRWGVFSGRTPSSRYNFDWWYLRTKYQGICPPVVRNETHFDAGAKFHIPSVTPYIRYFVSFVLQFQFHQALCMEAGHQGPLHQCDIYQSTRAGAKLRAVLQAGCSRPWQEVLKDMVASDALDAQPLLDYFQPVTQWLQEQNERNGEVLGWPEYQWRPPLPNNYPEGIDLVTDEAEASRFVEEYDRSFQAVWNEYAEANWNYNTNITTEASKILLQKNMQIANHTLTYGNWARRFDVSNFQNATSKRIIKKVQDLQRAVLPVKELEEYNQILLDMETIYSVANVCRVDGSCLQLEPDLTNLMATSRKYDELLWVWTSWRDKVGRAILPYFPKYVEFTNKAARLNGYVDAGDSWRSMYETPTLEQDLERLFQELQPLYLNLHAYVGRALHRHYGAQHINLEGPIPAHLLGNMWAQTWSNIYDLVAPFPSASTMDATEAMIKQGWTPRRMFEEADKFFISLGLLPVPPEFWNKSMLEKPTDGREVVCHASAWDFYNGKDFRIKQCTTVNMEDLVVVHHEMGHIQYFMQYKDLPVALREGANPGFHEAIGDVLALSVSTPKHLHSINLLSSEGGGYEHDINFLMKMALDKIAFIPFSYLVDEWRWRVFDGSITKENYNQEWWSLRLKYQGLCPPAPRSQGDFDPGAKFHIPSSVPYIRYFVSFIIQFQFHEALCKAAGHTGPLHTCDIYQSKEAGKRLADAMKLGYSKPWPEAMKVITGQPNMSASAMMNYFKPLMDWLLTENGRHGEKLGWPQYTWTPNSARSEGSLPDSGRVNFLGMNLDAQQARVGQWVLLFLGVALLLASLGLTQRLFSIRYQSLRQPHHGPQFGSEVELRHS
From the text: The I50 value represents the amount in micromols required to give an inhibitive effect of 50% in the tests using the procedure described in the Science article.

| IC50 [2] [µM] | Compound | ED50 [1] [mg/kg] |
| --- | --- | --- |
|  | CC(CS)C(=O)N(CC(=O)O)C1CCCCCC1 (centres unmarked) [Cycloheptyl H, N-(3-Mercapto-2-methylpropanoyl)-N-cycloheptylglycine] | 0.021 |
| 0.025 | CC(CS)C(=O)N(CC(=O)O)[C@@H]1C[C@H]2CC[C@@H]1C2 (stereo partly drawn) [exo-Norbornyl H, N-(3-Mercapto-2-methylpropanoyl)-N-(exo-norbornyl)glycine] | 0.11 |
| 0.044 | CC(=O)SCC(C)C(=O)N(CC(=O)O)C1CCCC1 (centres unmarked) [Cyclopentyl CH3 CO, N-(3-Acetylthio-2-methylpropanoyl)-N-cyclopentylglycine] | 0.16 |
| 0.095 | COCCN(CC(=O)O)C(=O)C(C)CS (centres unmarked) [H3 CO(CH2)2 H] |  |
| 0.088 | CC(=O)SCC(C)C(=O)N(CC(=O)O)C1CCCCCC1 (centres unmarked) [Cycloheptyl CH3 CO, N-(3-Acetylthio-2-methylpropanoyl)-N-cycloheptylglycine] |  |
| 0.027 | CC(CS)C(=O)N(CC(=O)O)C1CC1 (centres unmarked) [Cyclopropyl H, N-(3-Mercapto-2-methylpropanoyl)-N-cyclopropylglycine] | 0.14 |
|  | CC(CS)C(=O)N(CC(=O)O)C1Cc2ccccc2C1 (centres unmarked) [2-Indanyl H, N-(3-Mercapto-2-methylpropanoyl)-N-(indan-2-yl)glycine] | 0.16 |
|  | CC(=O)SCC(C)C(=O)N(CC(=O)O)C1CC1 (centres unmarked) [Cyclopropyl CH3 CO, N-(3-Acetylthio-2-methylpropanoyl)-N-(cyclopropyl)glycine] | 0.13 |
|  | CC(=O)SCC(C)C(=O)N(CC(=O)O)c1ccccc1 (centres unmarked) [Phenyl CH3 CO, N-(3-Acetylthio-2-methylpropanoyl)-N-phenylglycine] | 0.23 |
|  | CC(CS)C(=O)N(CC(=O)O)C1CCCC1 (centres unmarked) [Cyclopentyl H, N-(3-Mercapto-2-methylpropanoyl)-N-cyclopentylglycine] | 0.15 |
| 0.022 | CC(=O)SCC(C)C(=O)N(CC(=O)O)[C@@H]1C[C@H]2CC[C@@H]1C2 (stereo partly drawn) [exo-Norbornyl CH3 CO, N-(3-Acetylthio-2-methylpropanoyl)-N-(exo-norbornyl)glycine] | 0.06 |
| 0.055 | CSCCCN(CC(=O)O)C(=O)C(C)CS (centres unmarked) [H3 CS(CH2)3 H, N-(3-Mercapto-2-methylpropanoyl)-N-(3-methylthiopropyl)glycine] |  |
|  | CC(CS)C(=O)N(CC(=O)O)C1CCC1 (centres unmarked) [Cylcobutyl H, N-(3-Mercapto-2-methylpropanoyl)-N-cyclobutylglycine] | 0.21 |
